Laboratory results published in PMC7407272, “Induction of Lysosome Membrane Permeabilization as a Therapeutic Strategy to Target Pancreatic Cancer Stem Cells” (Cancers, 2020).

Assays:
Assay in all cases: KINOMEscan
Assay type in all cases: binding
Conditions in all cases: read-out: % Ctrl
CDK11 = target: T1, CDK11 (Homo sapiens, UniProt Q9BWU1)
T1 construct: purchased DiscoveRx KINOMEscan

MET(Y1235D) = target: T2, MET(Y1235D) (Homo sapiens, UniProt P08581, Y1235D)
T2 construct: purchased DiscoveRx KINOMEscan

ERK2 = target: T3, ERK2 (Homo sapiens, UniProt P28482)
T3 construct: purchased DiscoveRx KINOMEscan

EGFR(L861Q) = target: T4, EGFR(L861Q) (Homo sapiens, UniProt P00533, L861Q)
T4 construct: purchased DiscoveRx KINOMEscan

CAMKK2 = target: T5, CAMKK2 (Homo sapiens, UniProt Q96RR4)
T5 construct: purchased DiscoveRx KINOMEscan

HIPK2 = target: T6, HIPK2 (Homo sapiens, UniProt Q9H2X6)
T6 construct: purchased DiscoveRx KINOMEscan

EGFR = target: T7, EGFR (Homo sapiens, UniProt P00533)
T7 construct: purchased DiscoveRx KINOMEscan

PYK2 = target: T8, PYK2 (Homo sapiens, UniProt Q14289)
T8 construct: purchased DiscoveRx KINOMEscan

RIPK5 = target: T9, RIPK5 (Homo sapiens, UniProt Q6XUX3)
T9 construct: purchased DiscoveRx KINOMEscan

RSK4(KD2-C-t.) = target: T10, RSK4(KD2-C-t.) (Homo sapiens, UniProt Q9UK32)
T10 construct: RSK4(KD2-C-t.); purchased DiscoveRx KINOMEscan

MARK4 = target: T11, MARK4 (Homo sapiens, UniProt Q96L34)
T11 construct: purchased DiscoveRx KINOMEscan

AKT3 = target: T12, AKT3 (Homo sapiens, UniProt Q9Y243)
T12 construct: purchased DiscoveRx KINOMEscan
T12 sequence (Q9Y243 whole entry): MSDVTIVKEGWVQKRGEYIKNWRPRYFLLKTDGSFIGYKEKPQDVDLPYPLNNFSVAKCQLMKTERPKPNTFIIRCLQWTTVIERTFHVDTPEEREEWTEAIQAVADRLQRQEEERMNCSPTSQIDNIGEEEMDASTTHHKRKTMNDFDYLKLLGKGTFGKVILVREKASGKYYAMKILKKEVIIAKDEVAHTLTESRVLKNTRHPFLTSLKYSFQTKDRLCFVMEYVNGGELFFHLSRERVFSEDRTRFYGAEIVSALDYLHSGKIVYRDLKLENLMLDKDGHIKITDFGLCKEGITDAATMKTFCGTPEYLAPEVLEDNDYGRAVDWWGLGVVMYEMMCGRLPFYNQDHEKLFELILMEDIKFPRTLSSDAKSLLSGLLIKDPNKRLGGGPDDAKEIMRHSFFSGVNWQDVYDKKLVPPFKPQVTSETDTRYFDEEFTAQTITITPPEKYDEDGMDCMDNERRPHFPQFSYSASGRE

PIP5K2C = target: T13, PIP5K2C (Homo sapiens, UniProt Q8TBX8)
T13 construct: purchased DiscoveRx KINOMEscan

CLK4 = target: T14, CLK4 (Homo sapiens, UniProt Q9HAZ1)
T14 construct: purchased DiscoveRx KINOMEscan
T14 sequence (Q9HAZ1 whole entry): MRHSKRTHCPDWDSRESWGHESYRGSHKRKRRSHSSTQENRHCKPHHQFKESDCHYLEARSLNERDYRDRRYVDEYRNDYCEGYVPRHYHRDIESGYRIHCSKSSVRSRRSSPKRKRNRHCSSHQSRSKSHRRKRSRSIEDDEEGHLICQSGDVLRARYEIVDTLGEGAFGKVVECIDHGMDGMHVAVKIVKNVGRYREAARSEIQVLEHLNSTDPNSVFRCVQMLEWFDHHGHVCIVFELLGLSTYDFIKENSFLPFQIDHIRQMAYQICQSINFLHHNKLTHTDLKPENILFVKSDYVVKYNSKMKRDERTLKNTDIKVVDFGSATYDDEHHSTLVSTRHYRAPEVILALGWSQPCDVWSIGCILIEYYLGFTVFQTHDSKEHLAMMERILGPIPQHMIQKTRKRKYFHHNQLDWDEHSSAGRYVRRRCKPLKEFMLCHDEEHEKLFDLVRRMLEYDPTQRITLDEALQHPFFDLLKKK

ROCK2 = target: T15, ROCK2 (Homo sapiens, UniProt O75116)
T15 construct: purchased DiscoveRx KINOMEscan

EPHB1 = target: T16, EPHB1 (Homo sapiens, UniProt P54762)
T16 construct: purchased DiscoveRx KINOMEscan
T16 sequence (P54762 18-984): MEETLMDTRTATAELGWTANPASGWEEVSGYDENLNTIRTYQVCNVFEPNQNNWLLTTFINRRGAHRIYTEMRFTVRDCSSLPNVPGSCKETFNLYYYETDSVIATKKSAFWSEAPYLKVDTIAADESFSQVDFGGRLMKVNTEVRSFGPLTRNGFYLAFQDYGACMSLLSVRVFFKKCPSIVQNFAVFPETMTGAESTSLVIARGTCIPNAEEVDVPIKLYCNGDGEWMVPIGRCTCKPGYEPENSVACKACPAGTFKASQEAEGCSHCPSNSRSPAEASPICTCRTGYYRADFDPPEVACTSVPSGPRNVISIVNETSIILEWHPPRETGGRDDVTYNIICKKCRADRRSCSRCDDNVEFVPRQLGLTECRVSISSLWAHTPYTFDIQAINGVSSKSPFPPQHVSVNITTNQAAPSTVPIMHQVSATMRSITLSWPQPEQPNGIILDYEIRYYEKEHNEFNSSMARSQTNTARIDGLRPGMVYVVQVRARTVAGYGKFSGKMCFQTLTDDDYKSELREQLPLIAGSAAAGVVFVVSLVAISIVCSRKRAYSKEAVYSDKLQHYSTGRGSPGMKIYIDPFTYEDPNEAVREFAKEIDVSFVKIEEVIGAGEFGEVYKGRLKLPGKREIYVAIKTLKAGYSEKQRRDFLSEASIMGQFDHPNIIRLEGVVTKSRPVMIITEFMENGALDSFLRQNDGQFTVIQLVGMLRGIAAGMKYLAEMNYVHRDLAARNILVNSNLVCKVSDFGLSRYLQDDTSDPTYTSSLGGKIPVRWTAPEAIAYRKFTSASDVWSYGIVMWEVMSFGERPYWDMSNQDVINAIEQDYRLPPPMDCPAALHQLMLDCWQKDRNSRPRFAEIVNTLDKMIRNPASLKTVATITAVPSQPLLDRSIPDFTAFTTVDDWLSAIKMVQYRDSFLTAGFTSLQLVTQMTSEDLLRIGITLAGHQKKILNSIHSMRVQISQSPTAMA

MAP3K1 = target: T17, MAP3K1 (Homo sapiens, UniProt Q13233)
T17 construct: purchased DiscoveRx KINOMEscan

BRK = target: T18, BRK (Homo sapiens, UniProt Q13882)
T18 construct: purchased DiscoveRx KINOMEscan
T18 sequence (Q13882 whole entry): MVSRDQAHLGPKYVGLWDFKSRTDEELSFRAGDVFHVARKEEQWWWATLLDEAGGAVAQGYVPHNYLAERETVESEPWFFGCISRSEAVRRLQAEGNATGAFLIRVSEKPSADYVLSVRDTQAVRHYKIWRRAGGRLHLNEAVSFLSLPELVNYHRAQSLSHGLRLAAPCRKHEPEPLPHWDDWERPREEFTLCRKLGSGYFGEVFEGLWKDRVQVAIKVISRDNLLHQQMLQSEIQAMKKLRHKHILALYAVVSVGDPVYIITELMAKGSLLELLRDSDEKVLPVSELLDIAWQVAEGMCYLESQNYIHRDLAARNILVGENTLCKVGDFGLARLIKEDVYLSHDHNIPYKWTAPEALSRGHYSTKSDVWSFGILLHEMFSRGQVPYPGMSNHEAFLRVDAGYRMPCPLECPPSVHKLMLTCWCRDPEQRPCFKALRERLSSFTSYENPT

KIT(L576P) = target: T19, KIT(L576P) (Homo sapiens, UniProt P10721, L576P)
T19 construct: purchased DiscoveRx KINOMEscan

ASK2 = target: T20, ASK2 (Homo sapiens, UniProt O95382)
T20 construct: purchased DiscoveRx KINOMEscan

PRP4 = target: T21, PRP4 (Homo sapiens, UniProt Q13523)
T21 construct: purchased DiscoveRx KINOMEscan
Experimental: (§1) The KINOMEscan ^TM screening platform employs an active site-directed competition binding assay to quantitatively measure interactions between test compound and 468 human kinases and disease relevant mutant variants. […] The assay was performed at DiscoveRx Corporation.

CDC2L5 = target: T22, CDC2L5 (Homo sapiens, UniProt Q14004)
T22 construct: purchased DiscoveRx KINOMEscan
Experimental: as §1

CDKL3 = target: T23, CDKL3 (Homo sapiens, UniProt Q8IVW4)
T23 construct: purchased DiscoveRx KINOMEscan

WNK1 = target: T24, WNK1 (Homo sapiens, UniProt Q9H4A3)
T24 construct: purchased DiscoveRx KINOMEscan

MAP3K3 = target: T25, MAP3K3 (Homo sapiens, UniProt Q99759)
T25 construct: purchased DiscoveRx KINOMEscan

CSK = target: T26, CSK (Homo sapiens, UniProt P41240)
T26 construct: purchased DiscoveRx KINOMEscan

MYLK = target: T27, MYLK (Homo sapiens, UniProt Q15746)
T27 construct: purchased DiscoveRx KINOMEscan

CDC2L1 = target: T28, CDC2L1 (Homo sapiens, UniProt P21127)
T28 construct: purchased DiscoveRx KINOMEscan

PIKFYVE = target: T29, PIKFYVE (Homo sapiens, UniProt Q9Y2I7)
T29 construct: purchased DiscoveRx KINOMEscan

ABL1(H396P)-nonP = target: T30, ABL1(H396P)-nonP (Homo sapiens, UniProt P00519, H396P)
T30 construct: purchased DiscoveRx KINOMEscan

PIK3CA(E545K) = target: T31, PIK3CA(E545K) (Homo sapiens, UniProt P42336, E545K)
T31 construct: purchased DiscoveRx KINOMEscan

NEK9 = target: T32, NEK9 (Homo sapiens, UniProt Q8TD19)
T32 construct: purchased DiscoveRx KINOMEscan

JAK2(JH1D.-cat.) = target: T33, JAK2(JH1D.-cat.) (Homo sapiens, UniProt O60674)
T33 construct: JAK2(JH1D.-cat.); purchased DiscoveRx KINOMEscan

DAPK2 = target: T34, DAPK2 (Homo sapiens, UniProt Q9UIK4)
T34 construct: purchased DiscoveRx KINOMEscan

CSNK1E = target: T35, CSNK1E (Homo sapiens, UniProt P49674)
T35 construct: purchased DiscoveRx KINOMEscan

PIK3CB = target: T36, PIK3CB (Homo sapiens, UniProt P42338)
T36 construct: purchased DiscoveRx KINOMEscan

EGFR(S752-I759del) = target: T37, EGFR(S752-I759del) (Homo sapiens, UniProt P00533, DEL752-759)
T37 construct: purchased DiscoveRx KINOMEscan
T37 sequence (P00533 with tags, fused parts or gaps DEL752-759 limits assumed): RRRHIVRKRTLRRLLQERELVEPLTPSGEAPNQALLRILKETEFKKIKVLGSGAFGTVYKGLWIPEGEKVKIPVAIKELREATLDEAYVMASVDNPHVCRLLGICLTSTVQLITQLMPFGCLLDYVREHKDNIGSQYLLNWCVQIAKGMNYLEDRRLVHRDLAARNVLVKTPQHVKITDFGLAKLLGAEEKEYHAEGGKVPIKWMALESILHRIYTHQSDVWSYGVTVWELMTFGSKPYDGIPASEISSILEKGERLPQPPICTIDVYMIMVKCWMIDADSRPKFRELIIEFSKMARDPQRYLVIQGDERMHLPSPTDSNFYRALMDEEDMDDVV

BMPR2 = target: T38, BMPR2 (Homo sapiens, UniProt Q13873)
T38 construct: purchased DiscoveRx KINOMEscan
T38 sequence (Q13873 27-1038): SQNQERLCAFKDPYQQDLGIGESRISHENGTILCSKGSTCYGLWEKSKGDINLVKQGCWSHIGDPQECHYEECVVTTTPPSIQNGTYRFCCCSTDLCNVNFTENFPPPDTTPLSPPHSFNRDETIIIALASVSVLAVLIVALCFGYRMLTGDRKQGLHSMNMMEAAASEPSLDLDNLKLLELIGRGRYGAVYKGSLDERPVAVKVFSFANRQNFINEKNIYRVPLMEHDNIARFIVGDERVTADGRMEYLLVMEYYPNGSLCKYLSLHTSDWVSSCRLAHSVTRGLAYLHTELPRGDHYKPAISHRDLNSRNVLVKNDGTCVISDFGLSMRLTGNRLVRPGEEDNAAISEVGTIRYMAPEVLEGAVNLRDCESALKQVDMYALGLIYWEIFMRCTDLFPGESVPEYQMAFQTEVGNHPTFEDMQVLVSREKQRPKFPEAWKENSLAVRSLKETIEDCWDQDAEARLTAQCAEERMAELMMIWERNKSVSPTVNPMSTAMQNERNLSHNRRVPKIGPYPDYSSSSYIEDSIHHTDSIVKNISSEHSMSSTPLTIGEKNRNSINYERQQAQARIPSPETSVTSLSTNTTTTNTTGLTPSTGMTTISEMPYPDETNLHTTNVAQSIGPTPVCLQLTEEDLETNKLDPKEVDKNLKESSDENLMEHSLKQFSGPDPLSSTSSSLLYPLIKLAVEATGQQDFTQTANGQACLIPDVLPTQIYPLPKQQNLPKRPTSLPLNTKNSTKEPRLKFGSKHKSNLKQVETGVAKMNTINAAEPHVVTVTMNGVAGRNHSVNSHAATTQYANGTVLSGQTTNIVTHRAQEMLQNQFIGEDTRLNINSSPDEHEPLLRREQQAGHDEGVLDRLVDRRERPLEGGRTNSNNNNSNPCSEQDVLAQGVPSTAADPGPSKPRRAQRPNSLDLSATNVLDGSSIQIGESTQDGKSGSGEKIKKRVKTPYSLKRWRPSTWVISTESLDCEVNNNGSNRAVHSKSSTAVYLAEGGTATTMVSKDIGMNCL

PRKR = target: T39, PRKR (Homo sapiens, UniProt P19525)
T39 construct: purchased DiscoveRx KINOMEscan

MST1 = target: T40, MST1 (Homo sapiens, UniProt Q13043)
T40 construct: purchased DiscoveRx KINOMEscan

CSNK1D = target: T41, CSNK1D (Homo sapiens, UniProt P48730)
T41 construct: purchased DiscoveRx KINOMEscan

IKK-epsilon = target: T42, IKK-epsilon (Homo sapiens, UniProt Q14164)
T42 construct: purchased DiscoveRx KINOMEscan
T42 sequence (Q14164 whole entry): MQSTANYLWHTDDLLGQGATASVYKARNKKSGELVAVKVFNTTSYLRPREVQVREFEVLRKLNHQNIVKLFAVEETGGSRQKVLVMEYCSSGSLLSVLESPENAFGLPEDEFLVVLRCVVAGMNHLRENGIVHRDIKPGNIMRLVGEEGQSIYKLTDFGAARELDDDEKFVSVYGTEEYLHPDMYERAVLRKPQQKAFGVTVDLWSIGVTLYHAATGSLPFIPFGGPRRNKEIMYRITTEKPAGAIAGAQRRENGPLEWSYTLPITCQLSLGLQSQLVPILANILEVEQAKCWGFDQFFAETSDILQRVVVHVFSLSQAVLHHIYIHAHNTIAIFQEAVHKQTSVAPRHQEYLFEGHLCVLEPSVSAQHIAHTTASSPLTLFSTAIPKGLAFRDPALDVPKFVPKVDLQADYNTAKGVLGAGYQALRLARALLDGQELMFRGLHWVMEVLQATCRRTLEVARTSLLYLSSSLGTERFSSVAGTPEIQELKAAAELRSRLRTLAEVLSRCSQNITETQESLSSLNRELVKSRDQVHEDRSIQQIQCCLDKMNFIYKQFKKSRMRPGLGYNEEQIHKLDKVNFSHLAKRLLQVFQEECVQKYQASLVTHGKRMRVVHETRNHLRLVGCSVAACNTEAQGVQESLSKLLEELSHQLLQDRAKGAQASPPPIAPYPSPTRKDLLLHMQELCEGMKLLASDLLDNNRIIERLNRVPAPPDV

T1 sequence (Q9BWU1 whole entry): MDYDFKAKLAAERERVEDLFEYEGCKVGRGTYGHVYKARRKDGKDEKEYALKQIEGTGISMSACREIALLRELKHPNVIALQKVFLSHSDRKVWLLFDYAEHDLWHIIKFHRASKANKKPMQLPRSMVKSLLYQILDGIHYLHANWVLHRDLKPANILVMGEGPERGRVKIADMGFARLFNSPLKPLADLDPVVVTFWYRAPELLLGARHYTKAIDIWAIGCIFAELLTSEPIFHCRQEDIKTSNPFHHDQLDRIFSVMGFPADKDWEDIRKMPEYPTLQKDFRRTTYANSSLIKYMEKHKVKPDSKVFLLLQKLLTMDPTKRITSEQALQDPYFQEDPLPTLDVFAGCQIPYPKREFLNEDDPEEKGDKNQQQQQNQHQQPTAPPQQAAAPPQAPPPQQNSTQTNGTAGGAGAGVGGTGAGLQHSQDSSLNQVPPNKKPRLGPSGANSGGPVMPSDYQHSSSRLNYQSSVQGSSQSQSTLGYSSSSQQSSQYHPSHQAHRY

CN1CCC(CNc2ccc3ncc(C(=O)Nc4cccc(OC(F)(F)F)c4)n3n2)CC1 [Cpd 2]
remaining binding at 1 µM (CDK11): 97% | remaining binding at 1 µM (MET(Y1235D)): 93% | remaining binding at 1 µM (ERK2): 100% | remaining binding at 1 µM (EGFR(L861Q)): 94% | remaining binding at 1 µM (CAMKK2): 100% | remaining binding at 1 µM (HIPK2): 68% | remaining binding at 1 µM (EGFR): 94% | remaining binding at 1 µM (PYK2): 95% | remaining binding at 1 µM (RIPK5): 84% | remaining binding at 1 µM (RSK4(KD2-C-t.)): 84% | remaining binding at 1 µM (MARK4): 100% | remaining binding at 1 µM (AKT3): 100% | remaining binding at 1 µM (PIP5K2C): 58% | remaining binding at 1 µM (CLK4): 100% | remaining binding at 1 µM (ROCK2): 94% | remaining binding at 1 µM (EPHB1): 97% | remaining binding at 1 µM (MAP3K1): 100% | remaining binding at 1 µM (BRK): 99% | remaining binding at 1 µM (KIT(L576P)): 88% | remaining binding at 1 µM (ASK2): 99% | remaining binding at 1 µM (PRP4): 100% | remaining binding at 1 µM (CDC2L5): 100% | remaining binding at 1 µM (CDKL3): 91% | remaining binding at 1 µM (WNK1): 100% | remaining binding at 1 µM (MAP3K3): 96% | remaining binding at 1 µM (CSK): 100% | remaining binding at 1 µM (MYLK): 100% | remaining binding at 1 µM (CDC2L1): 100% | remaining binding at 1 µM (PIKFYVE): 45% | remaining binding at 1 µM (ABL1(H396P)-nonP): 93% | remaining binding at 1 µM (PIK3CA(E545K)): 87% | remaining binding at 1 µM (NEK9): 88% | remaining binding at 1 µM (JAK2(JH1D.-cat.)): 96% | remaining binding at 1 µM (DAPK2): 89% | remaining binding at 1 µM (CSNK1E): 95% | remaining binding at 1 µM (PIK3CB): 91% | remaining binding at 1 µM (EGFR(S752-I759del)): 97% | remaining binding at 1 µM (BMPR2): 87% | remaining binding at 1 µM (PRKR): 83% | remaining binding at 1 µM (MST1): 100% | remaining binding at 1 µM (CSNK1D): 100% | remaining binding at 1 µM (IKK-epsilon): 100%
